We go through eight compounds from ChEMBL document CHEMBL1146366, “Synthesis and antigenotoxic activity of some naphtho[2,1-b]pyrano[3,2-e][1,2,4]triazolo[1,5-c]pyrimidine derivatives” (Eur J Med Chem, 2007).

Data set [1] has as its system Escherichia coli. As to the kind of experiment: Genotoxicity in Escherichia coli PQ37 assessed as ratio of beta-galactosidase/AP activity in presence and absence of drug at 10 ug. The class given is toxicity, organism-based.
The test system of data set [2] is Escherichia coli. Kind of data set: Inhibition of nifuroxazide-induced genotoxicity in Escherichia coli PQ37 at 2 ug by SOS chromotest. Format: functional.
The subject of data set [3] is Escherichia coli. As to the kind of experiment: Inhibition of nifuroxazide-induced genotoxicity in Escherichia coli PQ37 at 10 ug by SOS chromotest. The class given is functional.
Data set [4] concerns Escherichia coli. Kind of data set: Inhibition of nifuroxazide-induced genotoxicity in Escherichia coli PQ37 at 50 ug by SOS chromotest. The class given is functional.
Data set [5] relates to Escherichia coli. Kind of data set: Genotoxicity in Escherichia coli PQ37 assessed as ratio of beta-galactosidase/AP activity in presence and absence of drug at 50 ug. The class given is toxicity, organism-based.
In data set [6] the test system is Escherichia coli. As to the kind of experiment: Genotoxicity in Escherichia coli PQ37 assessed as ratio of beta-galactosidase/AP activity in presence and absence of drug at 2 ug. The class given is toxicity, organism-based.
Data set [7] has as its system Escherichia coli. As to the kind of experiment: Genotoxicity in Escherichia coli PQ37 assessed as ratio of beta-galactosidase/AP activity in presence and absence of drug at 5 ug. The class given is toxicity, organism-based.

A word on the Inhibition: it is the relative decrease from the control value, in per cent. For `Cc1nc2c3c(ncn2n1)Oc1ccc2ccccc2c1C3c1ccccc1` (stereo not drawn), the results for the Ratio in data set [1], in data set [5] and in data set [6] were 1.32, 1.56 and 1.12, respectively. Besides, the Inhibition was 70% in data set [2], 61% in data set [3] and 56% in data set [4].
On to `O=C(N/N=C/c1ccc([N+](=O)[O-])o1)c1ccc(O)cc1` [NIFUROXAZIDE], for which the Ratio in data set [7] is 12.88.
On to `CC(C)C1c2c(ccc3ccccc23)Oc2ncn3nc(-c4ccccc4)nc3c21` (stereo not drawn), for which the Ratio in data set [1] is reported as 1.19; in data set [5] it was 1.25; in data set [6], 1.11. The Inhibition worked out at 62% in data set [2], 61% in data set [3] and 63% in data set [4].
For `Clc1ccccc1C1c2c(ccc3ccccc23)Oc2ncn3nc(-c4ccccc4)nc3c21` (stereo not drawn), the Ratio was determined as 1.21 in data set [1], 1.62 in data set [5] and 1.16 in data set [6]. In addition, the Inhibition in data set [2] is 64%; in data set [3] it was 60%; in data set [4], 48%.
Regarding `c1ccc(-c2nc3c4c(ncn3n2)Oc2ccc3ccccc3c2C4c2ccco2)cc1` (stereo not drawn), the Ratio in data set [1] turned out to be 1.4; in data set [5], 1.3; in data set [6] it was 1.3. The Inhibition in data set [2] stood at 99%; in data set [3], 99%; in data set [4], 75%.
For the compound `c1ccc(-c2nc3c4c(ncn3n2)Oc2ccc3ccccc3c2C4c2ccccc2)cc1` (stereo not drawn), the Ratio in data set [1] is given as 1.24; in data set [5], 1.4; in data set [6] it was 1.02. The Inhibition in data set [2] is listed as 78%; in data set [3] it was 86%; in data set [4], 99%.
As for `Clc1ccc(C2c3c(ccc4ccccc34)Oc3ncn4nc(-c5ccccc5)nc4c32)cc1` (stereo not drawn), the Ratio in data set [1] was 1.33; in data set [5], 1.67; in data set [6], 1.44. Also, the Inhibition came to 32% in data set [2], 38% in data set [3] and 48% in data set [4].
On to `Cc1nc2c3c(ncn2n1)Oc1ccc2ccccc2c1C3C(C)C` (stereo not drawn), for which the Ratio came out at 1.1 in data set [1], 1.39 in data set [5] and 1.01 in data set [6]. Also, the Inhibition in data set [2] was determined as 99%; in data set [3], 98%; in data set [4], 95%.
